Experiments:
human μ opiate receptor = target: T1, human μ opiate receptor (Homo sapiens, UniProt P35372); assay: Affinity for the human μ opiate receptor ([3H]-naloxone displacement, CHO-K1 receptor membrane preparation, SPA); type: binding; details: test concentration of 1 μM; read-out: μ (binding on the μ opioid receptor, % inhibition)
T1 construct: purchased PerkinElmer Life Sciences, Zaventem, Belgium RB-HOM; host or cells: CHO-K1 cells (membrane preparation)
Method in brief: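 Displacement of 1 nmol/l [3H]-naloxone measured by SPA counting after 90 min at room temperature, using human μ receptor CHO-K1 membrane preparation in Tris-HCl buffer with 0.06% BSA. Test substances at 1 μmol/l give % inhibition; dilution series yield IC50, then Ki (Cheng-Prusoff); non-specific binding with 100 μmol/l naloxone.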

[1] = target: T2, serotonin (5-HT) reuptake (Rattus norvegicus, UniProt P31652); assay: Inhibition of serotonin (5HT) reuptake in synaptosomes from rat brain; type: biochemical; details: test concentration of 10 μM; read-out: 5-HT (inhibition of reuptake of serotonin, % inhibition)
T2 construct: synaptosomes are freshly isolated from areas of the rat brain; from tissue; host or cells: rat brain synaptosomes (P2 fraction)
Method in brief: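 Compounds screened at 10 μM and reported as percent inhibition of serotonin uptake. Uptake measured in a freshly prepared P2 synaptosomal fraction from rat brain.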

T1 sequence (P35372 whole entry): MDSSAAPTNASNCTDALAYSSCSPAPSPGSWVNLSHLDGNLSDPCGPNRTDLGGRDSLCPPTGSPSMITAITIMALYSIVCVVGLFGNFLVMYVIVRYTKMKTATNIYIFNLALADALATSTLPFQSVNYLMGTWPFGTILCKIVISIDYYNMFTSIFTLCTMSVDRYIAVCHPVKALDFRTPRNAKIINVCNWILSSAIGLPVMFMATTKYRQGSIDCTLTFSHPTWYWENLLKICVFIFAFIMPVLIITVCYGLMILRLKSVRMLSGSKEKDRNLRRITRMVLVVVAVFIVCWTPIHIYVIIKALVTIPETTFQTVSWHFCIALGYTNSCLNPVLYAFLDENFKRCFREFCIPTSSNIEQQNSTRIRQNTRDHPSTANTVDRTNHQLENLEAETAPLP
T2 sequence (P31652 whole entry): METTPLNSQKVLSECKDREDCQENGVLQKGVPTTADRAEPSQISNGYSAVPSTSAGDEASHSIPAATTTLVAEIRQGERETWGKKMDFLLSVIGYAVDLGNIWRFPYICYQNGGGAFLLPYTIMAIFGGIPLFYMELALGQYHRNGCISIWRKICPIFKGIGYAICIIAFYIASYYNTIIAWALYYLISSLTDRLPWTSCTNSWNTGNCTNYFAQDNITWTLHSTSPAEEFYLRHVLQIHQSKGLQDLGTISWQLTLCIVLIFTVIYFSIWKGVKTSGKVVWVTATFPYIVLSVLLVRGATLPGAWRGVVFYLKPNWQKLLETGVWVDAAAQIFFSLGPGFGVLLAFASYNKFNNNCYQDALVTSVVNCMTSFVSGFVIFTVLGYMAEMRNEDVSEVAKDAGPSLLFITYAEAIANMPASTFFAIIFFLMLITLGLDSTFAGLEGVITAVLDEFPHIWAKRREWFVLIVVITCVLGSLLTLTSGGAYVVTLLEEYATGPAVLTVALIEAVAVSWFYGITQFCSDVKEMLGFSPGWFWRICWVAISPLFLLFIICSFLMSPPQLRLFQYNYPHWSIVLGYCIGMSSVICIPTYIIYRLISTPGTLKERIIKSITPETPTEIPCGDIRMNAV

| Structure (SMILES) | inhibition at 1 µM (human μ opiate receptor) | inhibition at 10 µM [1] |
| --- | --- | --- |
| COc1cc(C)c(S(=O)(=O)N2CCN(CCOCC(=O)NCCC3CCC(C(c4cccc(F)c4)N(C)C)CC3)CC2)c(C)c1C (centres unmarked) [Example 200, N-(2-(4-((dimethylamino)(3-fluorophenyl)methyl)cyclohexyl)ethyl)-2-(2-(4-(4-methoxy-2,3,6-trimethylphenylsulfonyl)piperazin-1-yl)ethoxy)acetamide] | 80% | 95% |
| Cc1cc(C)c(S(=O)(=O)N2CCC(OCC(=O)NCC3CCC(C(c4cccc(F)c4)N(C)C)CC3)C2)c(C)c1 (centres unmarked) [Example 141, N-((4-((dimethylamino)(3-fluorophenyl)methyl)cyclohexyl)methyl)-2-(1-(mesitylsulfonyl)pyrrolidin-3-yloxy)acetamide] | 88% | 80% |
| CCN(CCOCC(=O)NCC1CCC(C(c2cccs2)N(C)C)CC1)S(=O)(=O)c1c(C)cc(OC)c(C)c1C (centres unmarked) [Example 16, N-((4-((dimethylamino)(thiophen-2-yl)methyl)cyclohexyl)methyl)-2-(2-(N-ethyl-4-methoxy-2,3,6-trimethylphenylsulfonamido)ethoxy)acetamide] | 98% | 98% |
| COc1ccc(S(=O)(=O)N2CCC(OCC(=O)NCC3CCC(C(c4cccs4)N(C)C)CC3)C2)cc1OC (centres unmarked) [Example 23, 2-(1-(3,4-dimethoxyphenylsulfonyl)pyrrolidin-3-yloxy)-N-((4-((dimethylamino)(thiophen-2-yl)methyl)cyclohexyl)methyl)acetamide] | 97% | 82% |
| CN(C)C(c1cccs1)C1CCC(CCNC(=O)COC2CCN(S(=O)(=O)c3ccc(Cl)cc3Cl)C2)CC1 (centres unmarked) [Example 21, 2-(1-(2,4-dichlorophenylsulfonyl)pyrrolidin-3-yloxy)-N-(2-(4-((dimethylamino)(thiophen-2-yl)methyl)cyclohexyl)ethyl)acetamide] | 97% | 94% |
| CN(C)C(c1ccccc1)C1CCC(CNC(=O)COCC2CCCN2S(=O)(=O)c2ccc(Cl)c(Cl)c2)CC1 (centres unmarked) [Example 18, 2-((1-(3,4-dichlorophenylsulfonyl)pyrrolidin-2-yl)methoxy)-N-((4-((dimethylamino)(phenyl)methyl)cyclohexyl)methyl)acetamide] | 98% | 95% |
| COc1cc(C)c(S(=O)(=O)N(CCOCC(=O)NC2CCC(C(c3ccccc3)N(C)C)CC2)Cc2ccccc2)c(C)c1C (centres unmarked) [Example 193, 2-(2-(N-benzyl-4-methoxy-2,3,6-trimethylphenylsulfonamido)ethoxy)-N-(4-((dimethylamino) (phenyl)methyl)cyclohexyl)acetamide] | 85% | 92% |
| CN(C)C(c1cccc(F)c1)C1CCC(NC(=O)COCCN(Cc2ccccc2)S(=O)(=O)c2ccccc2)CC1 (centres unmarked) [Example 175, 2-(2-(N-benzylphenylsulfonamido)ethoxy)-N-(4-((dimethylamino)(3-fluorophenyl)methyl)cyclohexyl)acetamide] | 85% | 97% |
| COc1cc(C)c(S(=O)(=O)N2CCC(CCOCC(=O)NCC3CCC(C(c4ccccc4)N(C)C)CC3)CC2)c(C)c1C (centres unmarked) [Example 146, N-((4-((dimethylamino)(phenyl)methyl)cyclohexyl)methyl)-2-(2-(1-(4-methoxy-2,3,6-trimethylphenylsulfonyl)piperidin-4-yl)ethoxy)acetamide] | 88% | 95% |
| COc1ccc(S(=O)(=O)N2CCCCC2COCC(=O)NCC2CCC(C(c3cccc(F)c3)N(C)C)CC2)c(OC)c1 (centres unmarked) [Example 151, 2-((1-(2,4-dimethoxyphenylsulfonyl)piperidin-2-yl)methoxy)-N-((4-((dimethylamino)(3-fluorophenyl)methyl)cyclohexyl)methyl)acetamide] | 90% | 87% |
| CN(C)C(c1cccs1)C1CCC(NC(=O)COCCN(Cc2ccccc2)S(=O)(=O)c2ccccc2)CC1 (centres unmarked) [Example 161, 2-(2-(N-benzylphenylsulfonamido)ethoxy)-N-(4-((dimethylamino)(thiophen-2-yl)methyl)cyclohexyl)acetamide] | 86% | 94% |
| CN(C)C(c1cccs1)C1CCC(CCNC(=O)COCCN(C)S(=O)(=O)c2cccc(C(F)(F)F)c2)CC1 (centres unmarked) [Example 32, N-(2-(4-((dimethylamino)(thiophen-2-yl)methyl)cyclohexyl)ethyl)-2-(2-(N-methyl-3-(trifluoromethyl)phenylsulfonamido)ethoxy)acetamide] | 97% | 97% |
| COc1ccc(S(=O)(=O)N2CCCCC2COCC(=O)NCCC2CCC(C(c3cccc(F)c3)N(C)C)CC2)cc1OC (centres unmarked) [Example 191, 2-((1-(3,4-dimethoxyphenylsulfonyl)piperidin-2-yl)methoxy)-N-(2-(4-((dimethylamino)(3-fluorophenyl)methyl)cyclohexyl)ethyl)acetamide] | 85% | 89% |
| CN(C)C(c1cccs1)C1CCC(NC(=O)COC2CCN(S(=O)(=O)c3cccc(C(F)(F)F)c3)C2)CC1 (centres unmarked) [Example 11, N-(4-((dimethylamino)(thiophen-2-yl)methyl)cyclohexyl)-2-(1-(3-(trifluoromethyl)phenylsulfonyl)pyrrolidin-3-yloxy)acetamide] | 98% | 86% |
| CN(C)C(c1cccc(F)c1)C1CCC(NC(=O)COCCN(C)S(=O)(=O)c2c(Cl)cccc2Cl)CC1 (centres unmarked) [Example 171, 2-(2-(2,6-dichloro-N-methylphenylsulfonamido)ethoxy)-N-(4-((dimethylamino)(3-fluorophenyl)methyl)cyclohexyl)acetamide] | 84% | 78% |
| COc1cc(C)c(S(=O)(=O)N2CCC(OCC(=O)NCC3CCC(C(c4ccccc4)N(C)C)CC3)C2)c(C)c1 (centres unmarked) [Example 173, N-((4-((dimethylamino)(phenyl)methyl)cyclohexyl)methyl)-2-(1-(4-methoxy-2,6-dimethylphenylsulfonyl)pyrrolidin-3-yloxy)acetamide] | 87% | 95% |
| CN(C)C(c1ccccc1)C1CCC(CNC(=O)COCC2CCCCN2S(=O)(=O)c2ccc(Cl)c(Cl)c2)CC1 (centres unmarked) [Example 17, 2-((1-(3,4-dichlorophenylsulfonyl)piperidin-2-yl)methoxy)-N-((4-((dimethylamino)(phenyl)methyl)cyclohexyl)methyl)acetamide] | 98% | 93% |
| CN(C)C(c1cccs1)C1CCC(CCNC(=O)COCCN(C)S(=O)(=O)c2ccc(Cl)cc2Cl)CC1 (centres unmarked) [Example 9, 2-(2-(2,4-dichloro-N-methylphenylsulfonamido)ethoxy)-N-(2-(4-((dimethylamino) (thiophen-2-yl)methyl)cyclohexyl)ethyl)acetamide] | 98% | 91% |
| CN(C)C(c1cccc(F)c1)C1CCC(CCNC(=O)COCC2CCCCN2S(=O)(=O)c2ccc(Cl)c(Cl)c2)CC1 (centres unmarked) [Example 147, 2-((1-(3,4-dichlorophenylsulfonyl)piperidin-2-yl)methoxy)-N-(2-(4-((dimethylamino)(3-fluorophenyl)methyl)cyclohexyl)ethyl)acetamide] | 90% | 96% |
| COc1ccc(S(=O)(=O)N2Cc3ccccc3CC2COCC(=O)NCCC2CCC(C(c3cccc(F)c3)N(C)C)CC2)cc1 (centres unmarked) [Example 190, N-(2-(4-((dimethylamino) (3-fluorophenyl)methyl)cyclohexyl)ethyl)-2-((2-(4-methoxyphenylsulfonyl)-1,2,3,4-tetrahydroisoquinolin-3-yl)methoxy)acetamide] | 83% | 79% |
| COc1ccc(S(=O)(=O)N(C)CCOCC(=O)NCC2CCC(C(c3cccs3)N(C)C)CC2)cc1 (centres unmarked) [Example 142, N-((4-((dimethylamino)(thiophen-2-yl)methyl)cyclohexyl)methyl)-2-(2-(4-methoxy-N-methylphenylsulfonamido)ethoxy)acetamide] | 89% | 70% |
| COc1cc(C)c(S(=O)(=O)N(CCOCC(=O)NCCC2CCC(C(c3cccs3)N(C)C)CC2)Cc2ccccc2)c(C)c1 (centres unmarked) [Example 149, 2-(2-(N-benzyl-4-methoxy-2,6-dimethylphenylsulfonamido)ethoxy)-N-(2-(4-((dimethylamino) (thiophen-2-yl)methyl)cyclohexyl)ethyl)acetamide] | 91% | 91% |
| CN(C)C(c1cccs1)C1CCC(NC(=O)COC2CCN(S(=O)(=O)c3ccccc3)C2)CC1 (centres unmarked) [Example 194, N-(4-((dimethylamino)(thiophen-2-yl)methyl)cyclohexyl)-2-(1-(phenylsulfonyl)pyrrolidin-3-yloxy)acetamide] | 83% | 86% |
| COc1ccc(S(=O)(=O)N(C)CCOCC(=O)NCC2CCC(C(c3ccccc3)N(C)C)CC2)cc1OC (centres unmarked) [Example 169, 2-(2-(3,4-dimethoxy-N-methylphenylsulfonamido)ethoxy)-N-((4-((dimethylamino)(phenyl)methyl)cyclohexyl)methyl)acetamide] | 85% | 94% |
| Cc1ccc(S(=O)(=O)N2CCC(OCC(=O)NCC3CCC(C(c4cccc(F)c4)N(C)C)CC3)C2)cc1 (centres unmarked) [Example 185, N-((4-((dimethylamino)(3-fluorophenyl)methyl)cyclohexyl)methyl)-2-(1-tosylpyrrolidin-3-yloxy)acetamide] | 78% | 102% |
